Earlier results, collected in patent US4764376A, “Method of inhibiting aromatase” (Eli Lilly and Company, priority 1984, dated 1988).

Test system: breast cancer
Conditions: known aromatase inhibitors; result in words

Q: For `C[C@]12C=CC(=O)C=C1CC[C@@H]1[C@@H]2CC[C@]2(C)OC(=O)CC[C@@H]12` [testolactone], which “beneficial effect in treatment of breast cancer” value is on record?
A: The value was “beneficial effect”.

Q: For `CCC1(c2ccc(N)cc2)CCC(=O)NC1=O` (centres unmarked) [aminoglutethimide], which “beneficial effect in treatment of breast cancer” value is on record?
A: The value was “beneficial effect”.
